Measured values taken from patent US20040022777A1, “Fragments and antagonists of heat shock protein 60” (priority 1999, published 2004).
Ends that are not written are not given here.

Key:
Format in all cases: cell-based, mouse
[1] = system: bone marrow-derived macrophages of C3H/HeJ mice (mutant Toll-like receptor 4); assay: TNFα production by bone marrow-derived macrophages with mutant Tlr4 (sandwich ELISA); conditions: C3H/HeJ macrophages; LPS 10 ng/ml, hsp60 10 μg/ml, oligonucleotides 30 μg/ml; 6 h
[2] = system: bone marrow-derived macrophages of C3H/HeJ mice (mutant Toll-like receptor 4); assay: NO (nitrite) production by bone marrow-derived macrophages with mutant Tlr4 (Griess reaction); conditions: Tlr4 wild-type compared with Tlr4 defective macrophages; oligonucleotide 30 μg/ml; 24 h
[3] = system: hsp60 induced TNFα and Nitric oxide (NO) secretion in J774 cells; assay: Screening of 10-mer peptides for inhibition of hsp60 induced (and CpG induced) TNFα secretion; conditions: crude peptides at a dilution of 1:10
Method: The crude peptides were re-suspended in 500 μl water and tested at a dilution of 1:10, for inhibition of hsp60 induced TNFα and Nitric oxide (NO) secretion in J774 cells (as described in example no. 1 of the application). Selected peptides were tested (in an equivalent assay) also for inhibition of CpG induced TNFα secretion. CpG is a non-specific immunostimulatory oligonucleotide motif with the sequence: […]. CpG DNA: a novel immunomodulator Trends Microbiol 1999; 7:64-5). CpG stimulates J774 cells to produce TNFα in a mechanism different to that used by hsp60 and thus serves as a negative control for non-selective inhibition of TNF secretion (which is not mediated through specific inhibition of hsp60). […] The peptides in this chart were selected for re-screening based on the activity found in screening all the 192 peptides synthesized. The results are presented as percent inhibition of TNF-secretion in response to induction with hsp60 or CpG, and are the average of two repeats.

[4] = system: bone marrow-derived macrophages of C57BL/6 and C3H/HeN mice; assay: TNFα production by bone marrow-derived macrophages with wild-type Tlr4 (sandwich ELISA); conditions: C57BL/6 and C3H/HeN macrophages; LPS 10 ng/ml, hsp60 10 μg/ml; 6 h
[5] = system: bone marrow-derived macrophages of C57BL/6 and C3H/HeN mice; assay: NO (nitrite) production by bone marrow-derived macrophages with wild-type Tlr4 (Griess reaction); conditions: C57BL/6 and C3H/HeN macrophages; LPS 10 ng/ml, hsp60 10 μg/ml; 24 h

Row | Substance | TNFα response [1] | NO response / NO formation in the two macrophage types [2] | inhibition of hsp60 induced TNFα secretion, activity and specificity versus CpG induced TNFα secretion [3] | TNFα secretion [4] | NO production [5]
1 | 5′-ACCGATAACGTTGCCGGTGACG-3′ (DNA ACCGATAACGTTGCCGGTGACG; chemistry not given here) [Pal+, immunostimulatory oligonucleotide containing a CpG motif] | less stimulatory | failed to induce NO formation | – | – | –
2 | 5′-TCCATGACGTTCCTGATGCT-3′ (DNA TCCATGACGTTCCTGATGCT; chemistry not given here) [ODN1668, immunostimulatory oligonucleotide containing a CpG motif] | strong TNFα response | very similar NO response | – | – | –
3 | 5′-TCCATGAGCTTCCTGATGCT -3′ (DNA TCCATGAGCTTCCTGATGCT; chemistry not given here) [ODN1720, non-stimulatory oligonucleotide lacking a CpG motif] | did not provoke a response | failed to induce NO formation | – | – | –
4 | KVGGTSDVEV [Peptide No. 175] | – | – | hsp60-inhibiting | – | –
5 | Lipopolysaccharide [LPS, reference compound] | no response | – | – | rapid secretion of large amounts of TNFα | responded
6 | VLKVGGTSDV [Peptide No. 173] | – | – | hsp60-inhibiting | – | –
